“And” between values parts separate entries of the source, which are not always exact repeats. Equal entries are not always repeated. Where two headings read alike, the source gives them in different places.
How the values were obtained:
Decomposition = assay type: physicochemical; conditions: for kobs (apparent rate constant for decomposition): no thiol, compound 70 μM, MOPS 250 mM, pH 7, MeCN 25% v/v, 24 °C
[1] = Reaction with the biological thiol glutathione; assay type: physicochemical; conditions: for kobs (pseudo-first-order rate constant, + thiol): compound 70 μM, 24 °C; for kobs (pseudo-first-order rate constant, + thiol) / second-order rate constant for reaction with GSH: GSH 700 μM, MOPS 300 mM, pH 7, MeCN 25% v/v; for second-order rate constant for reaction with GSH: estimated from kobs
[2] = 100 μM 1 in HEPES, 250 mM, pH 7, 24 °C, no organic co-solvent; cited from earlier work
[3] = HEPES buffer, 50 mM, pH 7, 24 °C, no organic co-solvent; cited from earlier work

Row | SMILES | kobs (apparent rate constant for decomposition) (Decomposition) | kobs (pseudo-first-order rate constant, + thiol) [1] | second-order rate constant for reaction with GSH [1] | times more stable than 5 against decomposition in aqueous buffer (Decomposition; relative to 5) | times more stable than 6 against decomposition in aqueous buffer (Decomposition; relative to 6) | rate constant (decomposition) [2] | t1/2 (decomposition) [2] | times less reactive toward GSH than compound 5 ([1]; relative to 5) | second-order rate constant for reaction with GSH [3] | kobs (decomposition) (Decomposition; 300 mM MOPS, pH 7.0) | kobs (decomposition) (Decomposition; 500 mM MOPS) | kobs (decomposition) (Decomposition; pH 6.5, 300 mM MOPS) | kobs (decomposition) (Decomposition; pH 7.5, 300 mM MOPS) | stability relative to the cis isomer in aqueous buffered solution (Decomposition; trans isomer 6 versus cis isomer 5)
1 | CC1(C)[S+]([O-])SC(=O)[C@@]1(C)O (some centres unmarked) [Compound 5, 4-hydroxy-4,5,5-trimethyl-1,2-dithiolan-3-one-1-oxide] | 13.2 ± 0.01 × 10^−3 min^-1 | 24.3 ± 0.1 × 10^−2 min^-1 | 5.73 M⁻¹ s⁻¹ |  |  |  |  |  |  |  |  |  |  | 
2 | C/C1=C\[C@@H](O)C(=O)/C=C/C=C\c2csc(n2)[C@@H](C)NC(=O)C[C@@]2(CC1)[S+]([O-])SC(=O)[C@]2(C)O (some centres unmarked) [Compound 1, Leinamycin, reference compound] | 0.408 ± 0.001 × 10^−3 min^-1 | 6.67 ± 0.01 × 10^−2 min^-1 | 1.58 M⁻¹ s⁻¹ | approximately 30 times | ~15 times | 0.00072 min⁻¹ | 16.1 h | 3.6 times | 10.4 M⁻¹ s⁻¹ |  |  |  |  | 
3 | CC1(C)[S+]([O-])SC(=O)[C@]1(C)O (some centres unmarked) [Compound 6, 4-hydroxy-4,5,5-trimethyl-1,2-dithiolan-3-one-1-oxide] | 6.2 ± 0.6 × 10^−3 min^-1 | 18.3 ± 0.2 × 10^−2 min^-1 | 4.35 M⁻¹ s⁻¹ |  |  |  |  |  |  | 1.5 ± 0.2 × 10^−2 min^-1 and 1.5 × 10^−2 min^-1 | 1.9 ± 0.2 × 10^−2 min^-1 | 0.0087 min⁻¹ | 0.047 min⁻¹ | approximately two times more stable

Reference: paper PMC3376404 (Bioorganic & medicinal chemistry letters, 2012)
